{"source": "ChEMBL document CHEMBL3272269", "about": "“Synthesis and antileukemic activities of furanyl, pyranyl, and ribosyl derivatives of 4-(3,3-dimethyl-1-triazeno)imidazole-5-carboxamide and 3-(3,3-dimethyl-1-triazeno)pyrazole-4-carboxamide” (J Med Chem, 1979)", "key": {"L1210 [1]": {"test_system": "L1210", "experiment": "Antitumor activity against mouse L1210 cells allografted in mouse assessed as increase in survival at 200 mg/kg administered on day 1 followed by 5 injections with 1 day interval relative to control", "assay_type": "functional"}, "L1210 [2]": {"test_system": "L1210", "experiment": "Antitumor activity against mouse L1210 cells allografted in mouse assessed as survival at 200 mg/kg administered on day 1 followed by 5 injections with 1 day interval", "assay_type": "functional, organism-based", "set-up": "dose 200 mg/kg"}, "Mus musculus [3]": {"test_system": "Mus musculus", "experiment": "Toxicity in mouse L1210 cells allografted mouse assessed as reduction in body weight at 200 mg/kg administered on day 1 followed by 5 injections with 1 day interval", "assay_type": "organism-based", "set-up": "dose 200 mg/kg", "settings": "in vivo, 24 h"}, "L1210 [4]": {"test_system": "L1210", "experiment": "Antitumor activity against mouse L1210 cells allografted in mouse assessed as increase in survival at 200 mg/kg administered on day 1 followed by 3 injections with 4 day interval relative to control", "assay_type": "functional"}, "Mus musculus [5]": {"test_system": "Mus musculus", "experiment": "Toxicity in mouse L1210 cells allografted BDF1 mouse assessed as reduction in body weight at 100 mg/kg administered on day 1 followed by 3 injections with 4 day interval", "assay_type": "organism-based", "set-up": "dose 100 mg/kg", "settings": "in vivo, 96 h"}, "Mus musculus [6]": {"test_system": "Mus musculus", "experiment": "Toxicity in mouse L1210 cells allografted BDF1 mouse assessed as reduction in body weight at 400 mg/kg administered on day 1 followed by 3 injections with 4 day interval", "assay_type": "organism-based", "set-up": "dose 400 mg/kg", "settings": "in vivo, 96 h"}, "L1210 [7]": {"test_system": "L1210", "experiment": "Antitumor activity against mouse L1210 cells allografted in mouse assessed as survival at 100 mg/kg administered on day 1 followed by 3 injections with 4 day interval", "assay_type": "functional, organism-based", "set-up": "dose 100 mg/kg"}, "L1210 [8]": {"test_system": "L1210", "experiment": "Antitumor activity against mouse L1210 cells allografted in mouse assessed as survival at 200 mg/kg administered on day 1 followed by 3 injections with 4 day interval", "assay_type": "functional, organism-based", "set-up": "dose 200 mg/kg"}, "L1210 [9]": {"test_system": "L1210", "experiment": "Antitumor activity against mouse L1210 cells allografted in mouse assessed as increase in survival at 400 mg/kg administered on day 1 followed by 3 injections with 4 day interval relative to control", "assay_type": "functional"}, "Mus musculus [10]": {"test_system": "Mus musculus", "experiment": "Toxicity in mouse L1210 cells allografted BDF1 mouse assessed as reduction in body weight at 200 mg/kg administered on day 1 followed by 3 injections with 4 day interval", "assay_type": "organism-based", "set-up": "dose 200 mg/kg", "settings": "in vivo, 96 h"}, "L1210 [11]": {"test_system": "L1210", "experiment": "Antitumor activity against mouse L1210 cells allografted in mouse assessed as survival at 400 mg/kg administered on day 1 followed by 3 injections with 4 day interval", "assay_type": "functional, organism-based", "set-up": "dose 400 mg/kg"}, "L1210 [12]": {"test_system": "L1210", "experiment": "Antitumor activity against mouse L1210 cells allografted in mouse assessed as increase in survival at 100 mg/kg administered on day 1 followed by 3 injections with 4 day interval relative to control", "assay_type": "functional"}, "L1210 [13]": {"test_system": "L1210", "experiment": "Antitumor activity against mouse L1210 cells allografted in mouse assessed as increase in survival at 109 mg/kg administered on day 1 followed by 9 injections with 1 day interval relative to control", "assay_type": "functional"}, "L1210 [14]": {"test_system": "L1210", "experiment": "Antitumor activity against mouse L1210 cells allografted in mouse assessed as survival at 65 mg/kg administered on day 1 followed by 9 injections with 1 day interval", "assay_type": "functional, organism-based", "set-up": "dose 65 mg/kg"}, "L1210 [15]": {"test_system": "L1210", "experiment": "Antitumor activity against mouse L1210 cells allografted in mouse assessed as survival at 109 mg/kg administered on day 1 followed by 9 injections with 1 day interval", "assay_type": "functional, organism-based", "set-up": "dose 109 mg/kg"}, "L1210 [16]": {"test_system": "L1210", "experiment": "Antitumor activity against mouse L1210 cells allografted in mouse assessed as increase in survival at 65 mg/kg administered on day 1 followed by 9 injections with 1 day interval relative to control", "assay_type": "functional"}, "L1210 [17]": {"test_system": "L1210", "experiment": "Antitumor activity against mouse L1210 cells allografted in mouse assessed as survival at 180 mg/kg administered on day 1 followed by 9 injections with 1 day interval", "assay_type": "functional, organism-based", "set-up": "dose 180 mg/kg"}, "L1210 [18]": {"test_system": "L1210", "experiment": "Antitumor activity against mouse L1210 cells allografted in mouse assessed as increase in survival at 180 mg/kg administered on day 1 followed by 9 injections with 1 day interval relative to control", "assay_type": "functional"}, "L1210 [19]": {"test_system": "L1210", "experiment": "Antitumor activity against mouse L1210 cells allografted in mouse assessed as increase in survival at 100 mg/kg administered on day 1 followed by 5 injections with 1 day interval relative to control", "assay_type": "functional"}, "Mus musculus [20]": {"test_system": "Mus musculus", "experiment": "Toxicity in mouse L1210 cells allografted mouse assessed as reduction in body weight at 100 mg/kg administered on day 1 followed by 5 injections with 1 day interval", "assay_type": "organism-based", "set-up": "dose 100 mg/kg", "settings": "in vivo, 24 h"}, "L1210 [21]": {"test_system": "L1210", "experiment": "Antitumor activity against mouse L1210 cells allografted in mouse assessed as survival at 100 mg/kg administered on day 1 followed by 5 injections with 1 day interval", "assay_type": "functional, organism-based", "set-up": "dose 100 mg/kg"}, "Mus musculus [22]": {"test_system": "Mus musculus", "experiment": "Toxicity in mouse L1210 cells allografted mouse assessed as reduction in body weight at 50 mg/kg administered on day 1 followed by 5 injections with 1 day interval", "assay_type": "organism-based", "set-up": "dose 50 mg/kg", "settings": "in vivo, 24 h"}, "L1210 [23]": {"test_system": "L1210", "experiment": "Antitumor activity against mouse L1210 cells allografted in mouse assessed as increase in survival at 50 mg/kg administered on day 1 followed by 5 injections with 1 day interval relative to control", "assay_type": "functional"}, "L1210 [24]": {"test_system": "L1210", "experiment": "Antitumor activity against mouse L1210 cells allografted in mouse assessed as survival at 50 mg/kg administered on day 1 followed by 5 injections with 1 day interval", "assay_type": "functional, organism-based", "set-up": "dose 50 mg/kg"}}, "note": "The source made the active and inactive calls. No cut-off for these calls is given here."}
{"smiles": "CC(=O)OC[C@H]1O[C@@H](n2ncc(C(N)=O)c2/N=N/N(C)C)[C@H](OC(C)=O)[C@@H]1OC(C)=O", "values": [{"measurement": "T/C", "setting": "L1210 [1]", "result": 122, "unit": "%"}, {"measurement": "Activity", "setting": "L1210 [2]", "result": "Active"}, {"measurement": "Activity", "setting": "Mus musculus [3]", "result": 2.3, "unit": "g"}]}
{"smiles": "CN(C)/N=N/c1nn(C2CCCCO2)cc1C(N)=O", "note": "(centres undefined)", "values": [{"measurement": "T/C", "setting": "L1210 [4]", "result": 108, "unit": "%"}, {"measurement": "Activity", "setting": "Mus musculus [5]", "result": 0.9, "unit": "g"}, {"measurement": "Activity", "setting": "Mus musculus [6]", "result": 2.9, "unit": "g"}, {"measurement": "Activity", "setting": "L1210 [7]", "result": "Active"}, {"measurement": "Activity", "setting": "L1210 [8]", "result": "Active"}, {"measurement": "T/C", "setting": "L1210 [9]", "result": 119, "unit": "%"}, {"measurement": "Activity", "setting": "Mus musculus [10]", "result": 1, "unit": "g"}, {"measurement": "Activity", "setting": "L1210 [11]", "result": "Active"}, {"measurement": "T/C", "setting": "L1210 [12]", "result": 108, "unit": "%"}]}
{"smiles": "CN(C)/N=N/c1n[nH]cc1C(N)=O", "values": [{"measurement": "T/C", "setting": "L1210 [13]", "result": 176, "unit": "%"}, {"measurement": "Activity", "setting": "L1210 [14]", "result": "Active"}, {"measurement": "Activity", "setting": "L1210 [15]", "result": "Active"}, {"measurement": "T/C", "setting": "L1210 [16]", "result": 142, "unit": "%"}, {"measurement": "Activity", "setting": "L1210 [17]", "result": "Active"}, {"measurement": "T/C", "setting": "L1210 [18]", "result": 134, "unit": "%"}]}
{"smiles": "CN(C)/N=N/c1ncn(C2CCCO2)c1C(N)=O", "note": "(centres undefined)", "values": [{"measurement": "T/C", "setting": "L1210 [1]", "result": 115, "unit": "%"}, {"measurement": "T/C", "setting": "L1210 [19]", "result": 125, "unit": "%"}, {"measurement": "Activity", "setting": "Mus musculus [20]", "result": 1.9, "unit": "g"}, {"measurement": "Activity", "setting": "L1210 [21]", "result": "Active"}, {"measurement": "Activity", "setting": "L1210 [2]", "result": "Active"}, {"measurement": "Activity", "setting": "Mus musculus [3]", "result": 4.3, "unit": "g"}]}
{"smiles": "CN(C)/N=N/c1nn(C2CCCO2)cc1C(N)=O", "note": "(centres undefined)", "values": [{"measurement": "T/C", "setting": "L1210 [1]", "result": 134, "unit": "%"}, {"measurement": "T/C", "setting": "L1210 [19]", "result": 141, "unit": "%"}, {"measurement": "Activity", "setting": "Mus musculus [20]", "result": 2.3, "unit": "g"}, {"measurement": "Activity", "setting": "L1210 [21]", "result": "Active"}, {"measurement": "Activity", "setting": "L1210 [2]", "result": "Active"}, {"measurement": "Activity", "setting": "Mus musculus [22]", "result": 1.8, "unit": "g"}, {"measurement": "Activity", "setting": "Mus musculus [3]", "result": 3.7, "unit": "g"}, {"measurement": "T/C", "setting": "L1210 [23]", "result": 129, "unit": "%"}, {"measurement": "Activity", "setting": "L1210 [24]", "result": "Active"}]}
{"smiles": "CC(=O)OC[C@H]1O[C@@H](n2cnc(C(N)=O)c2/N=N/N(C)C)[C@H](OC(C)=O)[C@@H]1OC(C)=O", "values": [{"measurement": "T/C", "setting": "L1210 [1]", "result": 95, "unit": "%"}, {"measurement": "T/C", "setting": "L1210 [19]", "result": 104, "unit": "%"}, {"measurement": "Activity", "setting": "Mus musculus [20]", "result": 0.3, "unit": "g"}, {"measurement": "Activity", "setting": "L1210 [21]", "result": "Active"}, {"measurement": "Activity", "setting": "L1210 [2]", "result": "Active"}, {"measurement": "Activity", "setting": "Mus musculus [3]", "result": 0.9, "unit": "g"}]}
